Earlier results on five compounds are cited in paper PMC8513935.

Data set [1] is described as follows: log P octanol/water from commercial databases, averaged (the ESI). The following applies: Octanol (wet), 25 C.
Data set [2] can be described thus: experimental, compiled by the authors from the literature (the ESI cites the sources).
A short description of data set [3]: derived by the authors as gas->solvent minus gas->water (a hypothetical dry solvent; the ESI), not a two-phase measurement.

Structures are written as SMILES.

Consider `Cc1ccc(C)cc1`, for which the log K of transfer, water to solvent was 3.15 log10 K in data set [1]; 3.78 log10 K in data set [3] (1,2-Dichloroethane, 25 C); 3.03 log10 K in data set [3] (2-Methylpropan-1-ol, 25 C); 3.61 log10 K in data set [3] (CCl4, 25 C); 3.27 log10 K in data set [3] (Cyclohexane, 25 C); 3.14 log10 K in data set [3] (Ethanol, 25 C). Besides, the log K of transfer, water to solvent in data set [3] (Hexadecane, 25 C) was 3.25 log10 K; in data set [3] (Octan-1-ol(dry), 25 C) it was 3.2 log10 K. The log K of transfer, gas to solvent in data set [2] (1,2-Dichloroethane, 25 C) was 4.37 log10 K; in data set [2] (2-Methylpropan-1-ol, 25 C), 3.62 log10 K; in data set [2] (CCl4, 25 C), 4.2 log10 K; in data set [2] (Cyclohexane, 25 C) it was 3.86 log10 K; in data set [2] (Ethanol, 25 C), 3.73 log10 K; in data set [2] (Hexadecane, 25 C), 3.84 log10 K. Besides, the log K of transfer, gas to solvent in data set [2] (Octan-1-ol, 25 C) is 3.79 log10 K; in data set [2] (Water, 25 C), 0.59 log10 K.
`CCCOCCC`: the log K of transfer, water to solvent in data set [1] was 2.03 log10 K; in data set [3] (2-Methylpropan-1-ol, 25 C), 2.16 log10 K; in data set [3] (2-Methylpropan-2-ol, 25 C), 2.13 log10 K; in data set [3] (Butan-1-ol, 25 C) it was 2.13 log10 K; in data set [3] (Butan-2-ol, 25 C) it was 2.14 log10 K; in data set [3] (Butanone, 25 C), 2.3 log10 K. Besides, the log K of transfer, water to solvent was 2.64 log10 K in data set [3] (CCl4, 25 C); 2.78 log10 K in data set [3] (Dichloromethane, 25 C); 2.05 log10 K in data set [3] (Hexadecane, 25 C); 2.12 log10 K in data set [3] (Hexan-1-ol, 25 C); 1.99 log10 K in data set [3] (Methanol, 25 C); 2.07 log10 K in data set [3] (Octan-1-ol(dry), 25 C). For the same compound, the log K of transfer, water to solvent in data set [3] (Perfluoroalkane, 25 C) was 1.18 log10 K; in data set [3] (Propan-2-ol, 25 C) it was 2.05 log10 K. Besides, the log K of transfer, gas to solvent in data set [2] (2-Methylpropan-1-ol, 25 C) was 3.06 log10 K; in data set [2] (2-Methylpropan-2-ol, 25 C), 3.03 log10 K; in data set [2] (Butan-1-ol, 25 C), 3.03 log10 K; in data set [2] (Butan-2-ol, 25 C), 3.04 log10 K; in data set [2] (Butanone, 25 C), 3.2 log10 K; in data set [2] (CCl4, 25 C), 3.54 log10 K. The log K of transfer, gas to solvent was 3.68 log10 K in data set [2] (Dichloromethane, 25 C); 2.95 log10 K in data set [2] (Hexadecane, 25 C); 3.02 log10 K in data set [2] (Hexan-1-ol, 25 C); 2.89 log10 K in data set [2] (Methanol, 25 C); 2.97 log10 K in data set [2] (Octan-1-ol, 25 C); 2.08 log10 K in data set [2] (Perfluoroalkane, 25 C). The log K of transfer, gas to solvent is 2.95 log10 K in data set [2] (Propan-2-ol, 25 C) and 0.9 log10 K in data set [2] (Water, 25 C).
For `O`, the log K of transfer, water to solvent is -1.38 log10 K in data set [1]; -1.47 log10 K in data set [3] (Acetone, 25 C); -3.44 log10 K in data set [3] (Benzene, 25 C); -4.05 log10 K in data set [3] (CCl4, 25 C); -3.15 log10 K in data set [3] (Chloroform, 25 C); -4.4 log10 K in data set [3] (Cyclohexane, 25 C). In addition, the log K of transfer, water to solvent is -2.75 log10 K in data set [3] (Dichloromethane, 25 C); -0.97 log10 K in data set [3] (Ethanol, 25 C); -4.44 log10 K in data set [3] (Hexadecane, 25 C); -4.15 log10 K in data set [3] (Hexane, 25 C); -0.62 log10 K in data set [3] (Methanol, 25 C); -4.36 log10 K in data set [3] (Perfluoroalkane, 25 C). The log K of transfer, water to solvent was -1.28 log10 K in data set [3] (Propan-2-ol, 25 C); -1.78 log10 K in data set [3] (Tetrahydrofuran, 25 C); -3.45 log10 K in data set [3] (Toluene, 25 C). Further, the log K of transfer, gas to solvent is 1.25 log10 K in data set [2] (Benzene, 25 C); 0.64 log10 K in data set [2] (CCl4, 25 C); 1.54 log10 K in data set [2] (Chloroform, 25 C); 0.29 log10 K in data set [2] (Cyclohexane, 25 C); 1.94 log10 K in data set [2] (Dichloromethane, 25 C); 3.72 log10 K in data set [2] (Ethanol, 25 C). For the same compound, the log K of transfer, gas to solvent in data set [2] (Hexadecane, 25 C) is 0.245 log10 K; in data set [2] (Hexane, 25 C), 0.54 log10 K; in data set [2] (Methanol, 25 C) it was 4.07 log10 K; in data set [2] (Perfluoroalkane, 25 C) it was 0.33 log10 K; in data set [2] (Propan-2-ol, 25 C) it was 3.41 log10 K; in data set [2] (Propanone, 25 C) it was 3.22 log10 K. For the same compound, the log K of transfer, gas to solvent in data set [2] (Tetrahydrofuran, 25 C) was 2.91 log10 K; in data set [2] (Toluene, 25 C), 1.24 log10 K; in data set [2] (Water, 25 C) it was 4.69 log10 K.
For `C/C=C\C`, the log K of transfer, water to solvent in data set [1] is 2.33 log10 K; in data set [3] (Hexadecane, 25 C) it was 2.73 log10 K. Also, the log K of transfer, gas to solvent in data set [2] (Hexadecane, 25 C) is 1.74 log10 K; in data set [2] (Water, 25 C), -0.99 log10 K.
`Clc1cccc(Cl)c1`: the log K of transfer, water to solvent in data set [1] was 3.6 log10 K; in data set [3] (CCl4, 25 C) it was 3.83 log10 K; in data set [3] (Chloroform, 25 C), 3.87 log10 K; in data set [3] (Hexadecane, 25 C), 3.69 log10 K; in data set [3] (Hexane, 25 C), 3.81 log10 K; in data set [3] (Octan-1-ol(dry), 25 C) it was 3.41 log10 K. Further, the log K of transfer, gas to solvent was 4.55 log10 K in data set [2] (CCl4, 25 C); 4.59 log10 K in data set [2] (Chloroform, 25 C); 4.41 log10 K in data set [2] (Hexadecane, 25 C); 4.53 log10 K in data set [2] (Hexane, 25 C); 4.13 log10 K in data set [2] (Octan-1-ol, 25 C); 0.72 log10 K in data set [2] (Water, 25 C).
